From ChEMBL document CHEMBL1126446, “Acetylcholine releasing agents as cognition activators. Chemistry and pharmacology of a series of ureas” (1992) come the findings set out here.

Holding throughout (assay type): functional
Assay [1] is filed under the species Rattus norvegicus. The assay is described as follows: Compound was tested for the selective increase in basal stimulated AcCh release in hippocampus at 100 uM.
For assay [2], the species on record is Rattus norvegicus. The assay is described as follows: Compound was tested for the selective increase in K+ stimulated AcCh release in hippocampus at 100 uM.
The species named for another assay is Mus musculus. The assay is described as follows: Compound was tested for the minimum effective dose required for the inhibition of cholinesterase in mouse water maze. Particulars: read-out: MED.
Assay [3] is filed under the species Rattus norvegicus. The assay is described as follows: Compound was tested for the selective increase in basal stimulated AcCh release in striatum. Set-up: concentration or dose not given beside the values.
For assay [4], the species on record is Rattus norvegicus. The assay is described as follows: Compound was tested for the selective increase in K+ stimulated AcCh release in cortex at 100 uM.
The species named for assay [5] is Rattus norvegicus. The assay is described as follows: Compound was tested for the selective increase in K+ stimulated AcCh release in striatum. The arrangement: concentration or dose not given beside the values.
The species entered for assay [6] is Rattus norvegicus. The assay is described as follows: Compound was tested for the selective increase in basal stimulated AcCh release in cortex at 100 uM.
Assay [7] is filed under the species Rattus norvegicus. The assay is described as follows: Compound was tested for the selective increase in K+ stimulated AcCh release in cortex at 10 uM concentration.
Assay [8] is filed under the species Rattus norvegicus. The assay is described as follows: Compound was tested for the selective increase in K+ stimulated AcCh release in brain region of hippocampus at 100 uM concentration.
The species entered for assay [9] is Rattus norvegicus. The assay is described as follows: Compound was tested for the selective increase in K+ stimulated AcCh release in brain region of hippocampus at 10 uM concentration.
For assay [10], the species on record is Rattus norvegicus. The assay is described as follows: Compound was tested for the selective increase in basal stimulated AcCh release in cortex at 100 uM concentration.
Assay [11] is filed under the species Rattus norvegicus. The assay is described as follows: Compound was tested for the selective increase in basal stimulated AcCh release in cortex at 1 uM concentration.
For assay [12], the species on record is Rattus norvegicus. The assay is described as follows: Compound was tested for the selective increase in basal stimulated AcCh release in cortex at 50 uM concentration.
For assay [13], the species on record is Rattus norvegicus. The assay is described as follows: Compound was tested for the selective increase in basal stimulated AcCh release in striatum at 100 uM concentration.
The species named for assay [14] is Rattus norvegicus. The assay is described as follows: Compound was tested for the selective increase in basal stimulated AcCh release in striatum at 10 uM concentration.
For assay [15], the species on record is Rattus norvegicus. The assay is described as follows: Compound was tested for the selective increase in basal stimulated AcCh release in striatum at 1 uM concentration.
Assay [16] is filed under the species Rattus norvegicus. The assay is described as follows: Compound was tested for the selective increase in basal stimulated AcCh release in striatum at 50 uM concentration.
Assay [17] is filed under the species Rattus norvegicus. The assay is described as follows: Compound was tested for the selective increase in K+ stimulated AcCh release in brain region of hippocampus at 1 uM concentration.
Assay [18] is filed under the species Rattus norvegicus. The assay is described as follows: Compound was tested for the selective increase in K+ stimulated AcCh release in brain region of hippocampus at 50 uM concentration.
Assay [19] is filed under the species Rattus norvegicus. The assay is described as follows: Compound was tested for the selective increase in K+ stimulated AcCh release in cortex at 100 uM concentration.
For assay [20], the species on record is Rattus norvegicus. The assay is described as follows: Compound was tested for the selective increase in K+ stimulated AcCh release in cortex at 1 uM concentration.
The species entered for assay [21] is Rattus norvegicus. The assay is described as follows: Compound was tested for the selective increase in K+ stimulated AcCh release in cortex at 50 uM concentration.
Assay [22] is filed under the species Rattus norvegicus. The assay is described as follows: Compound was tested for the selective increase in K+ stimulated AcCh release in striatum 100 uM concentration.
Assay [23] is filed under the species Rattus norvegicus. The assay is described as follows: Compound was tested for the selective increase in K+ stimulated AcCh release in striatum 10 uM concentration.
For assay [24], the species on record is Rattus norvegicus. The assay is described as follows: Compound was tested for the selective increase in K+ stimulated AcCh release in striatum 1 uM concentration.
Assay [25] is filed under the species Rattus norvegicus. The assay is described as follows: Compound was tested for the selective increase in K+ stimulated AcCh release in striatum 50 uM concentration.
The species entered for assay [26] is Rattus norvegicus. The assay is described as follows: Compound was tested for the selective increase in basal stimulated AcCh release in brain region of hippocampus at 100 uM concentration.
For assay [27], the species on record is Rattus norvegicus. The assay is described as follows: Compound was tested for the selective increase in basal stimulated AcCh release in brain region of hippocampus at 10 uM concentration.
The species entered for assay [28] is Rattus norvegicus. The assay is described as follows: Compound was tested for the selective increase in basal stimulated AcCh release in brain region of hippocampus at 1 uM concentration.
The species named for assay [29] is Rattus norvegicus. The assay is described as follows: Compound was tested for the selective increase in basal stimulated AcCh release in brain region of hippocampus at 50 uM concentration.
Assay [30] is filed under the species Rattus norvegicus. The assay is described as follows: Compound was tested for the selective increase in basal stimulated AcCh release in cortex at 10 uM concentration.

`O=C(N(c1ccncc1)c1ccc(Cl)c(Cl)c1)N(C1CCCCC1)C1CCCCC1`: the “AcCh release (% of control)” value in the assay listed under Rattus norvegicus [1] worked out at 335.2%. The molecule further displayed a Control in the assay listed under Rattus norvegicus [2] of 233.2%.

For `Cc1ccc(N(C(=O)N(c2ccccc2)c2ccccc2)c2ccncc2)cc1`, the minimal effective dose in the assay listed under Mus musculus was over 32 mg/kg. In the assay listed under Rattus norvegicus [1], the “AcCh release (% of control)” value is recorded as 186.4%. Also, in the assay listed under Rattus norvegicus [2], the Control came to 229%.

Regarding `O=C(N(c1ccccc1)c1ccccc1)N(c1ccccc1)c1ccccc1`, in the assay filed under Rattus norvegicus [1], the “AcCh release (% of control)” value came to 137.8%. Besides, the Control in the assay filed under Rattus norvegicus [3] worked out at 402.4%; in the assay listed under Rattus norvegicus [4] it was 209.3%; in the assay listed under Rattus norvegicus [2], 420.6%; in the assay listed under Rattus norvegicus [5], 303.7%; in the assay filed under Rattus norvegicus [6], 144.1%.

Turning to `NC(=O)N(c1ccccc1)c1ccccc1`, in the assay filed under Rattus norvegicus [1], the “AcCh release (% of control)” value was 92.2%. Besides, the Control in the assay listed under Rattus norvegicus [3] was 105.9%; in the assay filed under Rattus norvegicus [4] it was 111.4%; in the assay filed under Rattus norvegicus [2], 128.7%; in the assay listed under Rattus norvegicus [5], 98.9%; in the assay listed under Rattus norvegicus [6], 105.1%.

`O=C(Nc1ccccc1)N(c1ccccc1)c1ccccc1`: in the assay filed under Rattus norvegicus [1], the “AcCh release (% of control)” value was determined as 78%. In addition, the Control in the assay listed under Rattus norvegicus [3] was determined as 259.5%; in the assay filed under Rattus norvegicus [4] it was 195.7%; in the assay filed under Rattus norvegicus [2], 151.3%; in the assay listed under Rattus norvegicus [5], 224%; in the assay filed under Rattus norvegicus [6], 100.3%.

As to `O=C(N(c1ccccc1)c1ccccc1)N(c1ccncc1)c1ccc(Cl)c(Cl)c1`, the minimal effective dose in the assay listed under Mus musculus was found to be 32 mg/kg. In the assay listed under Rattus norvegicus [1], the “AcCh release (% of control)” value amounted to 124.9%. Further, the Control in the assay listed under Rattus norvegicus [2] was determined as 46.6%.

Regarding `O=C(N(c1ccccc1)c1ccncc1)N(c1ccc(F)cc1)c1ccc(F)cc1`, the “AcCh release (% of control)” value in the assay filed under Rattus norvegicus [1] was determined as 115.6%. This molecule showed a Control in the assay filed under Rattus norvegicus [2] of 48.9%.

In the case of `O=C(N(c1ccccc1)c1ccccc1)N(c1ccncc1)c1ccc(Cl)cc1`, the “AcCh release (% of control)” value in the assay listed under Rattus norvegicus [1] is 159.2%. The molecule also came in with a Control in the assay listed under Rattus norvegicus [2] of 231.4%.

In the case of `O=C(N(c1ccccc1)c1ccccc1)N(c1ccccc1)c1ccncc1`, in the assay listed under Rattus norvegicus [1], the “AcCh release (% of control)” value was found to be 95.4%. In addition, the Control in the assay filed under Rattus norvegicus [3] is reported as 279.8%; in the assay filed under Rattus norvegicus [4], 100%; in the assay filed under Rattus norvegicus [2], 129.8%; in the assay listed under Rattus norvegicus [5], 206.5%; in the assay filed under Rattus norvegicus [6], 95.2%.

On to `O=C(N(c1ccccc1)c1ccccc1)N(c1ccncc1)c1cccc(Cl)c1`, for which, in the assay filed under Rattus norvegicus [1], the “AcCh release (% of control)” value stood at 103.4%. This molecule also displayed a Control in the assay filed under Rattus norvegicus [2] of 9.8%.

On to `O=C(N(c1ccccc1)c1ccccc1)N(c1ccccc1)c1ccccn1`, for which, in the assay listed under Rattus norvegicus [1], the “AcCh release (% of control)” value was 113.5%. For the same molecule, the Control in the assay listed under Rattus norvegicus [3] worked out at 232.1%; in the assay listed under Rattus norvegicus [4], 158.8%; in the assay filed under Rattus norvegicus [2], 318.3%; in the assay listed under Rattus norvegicus [5] it was 266.6%; in the assay filed under Rattus norvegicus [6] it was 130%.

For the molecule `Nc1ccncc1N` [AMIFAMPRIDINE], the Control in the assay filed under Rattus norvegicus [7] was found to be 108.1%; in the assay listed under Rattus norvegicus [8], 106.9%; in the assay filed under Rattus norvegicus [9], 100.8%; in the assay filed under Rattus norvegicus [10], 120.8%; in the assay filed under Rattus norvegicus [11], 104.2%; in the assay listed under Rattus norvegicus [12], 116%. Also, the Control is recorded as 224.8% in the assay listed under Rattus norvegicus [13]; 164.2% in the assay listed under Rattus norvegicus [14]; 129.3% in the assay listed under Rattus norvegicus [15]; 180.9% in the assay listed under Rattus norvegicus [16]; 121.9% in the assay filed under Rattus norvegicus [17]; 119.6% in the assay filed under Rattus norvegicus [18]. Further, the Control in the assay listed under Rattus norvegicus [19] is 110.8%; in the assay filed under Rattus norvegicus [20] it was 93.5%; in the assay listed under Rattus norvegicus [21], 103%; in the assay listed under Rattus norvegicus [22], 105.9%; in the assay listed under Rattus norvegicus [23], 111.5%; in the assay filed under Rattus norvegicus [24], 88.8%. Also, the Control came to 118.5% in the assay filed under Rattus norvegicus [25]; 127.8% in the assay listed under Rattus norvegicus [26]; 114% in the assay listed under Rattus norvegicus [27]; 106.2% in the assay filed under Rattus norvegicus [28]; 119% in the assay filed under Rattus norvegicus [29]; 113.8% in the assay listed under Rattus norvegicus [30].

Regarding `Nc1ccncc1` [DALFAMPRIDINE], the Control in the assay listed under Rattus norvegicus [7] was 104%; in the assay listed under Rattus norvegicus [8], 105%; in the assay filed under Rattus norvegicus [9], 96.5%; in the assay listed under Rattus norvegicus [10], 118%; in the assay filed under Rattus norvegicus [11] it was 96.2%; in the assay filed under Rattus norvegicus [12], 112.2%. Besides, the Control in the assay filed under Rattus norvegicus [13] is 170.9%; in the assay filed under Rattus norvegicus [14], 131.5%; in the assay filed under Rattus norvegicus [15], 107.6%; in the assay filed under Rattus norvegicus [17] it was 97.3%; in the assay listed under Rattus norvegicus [19], 96.3%; in the assay filed under Rattus norvegicus [20], 96.7%. For the same molecule, the Control in the assay listed under Rattus norvegicus [21] is 99.9%; in the assay filed under Rattus norvegicus [22] it was 131.6%; in the assay filed under Rattus norvegicus [23] it was 105.5%; in the assay listed under Rattus norvegicus [24], 94%; in the assay filed under Rattus norvegicus [26], 128.1%; in the assay filed under Rattus norvegicus [27] it was 116.8%. For the same molecule, the Control worked out at 112.7% in the assay filed under Rattus norvegicus [28] and 102.4% in the assay listed under Rattus norvegicus [30].

Take `O=C(Nc1ccccc1)Nc1ccccc1` [DIPHENYLUREA]: in the assay filed under Rattus norvegicus [1], the “AcCh release (% of control)” value was 89%. Moreover, the Control in the assay listed under Rattus norvegicus [3] turned out to be 97.1%; in the assay filed under Rattus norvegicus [4], 125.8%; in the assay listed under Rattus norvegicus [2], 138.6%; in the assay listed under Rattus norvegicus [5], 98.8%; in the assay filed under Rattus norvegicus [6], 101.9%.

As for `NC(=O)Nc1ccccc1` [PHENYLUREA], in the assay filed under Rattus norvegicus [1], the “AcCh release (% of control)” value is 94.1%. Also, the Control is on record as 99.3% in the assay filed under Rattus norvegicus [3]; 116.4% in the assay listed under Rattus norvegicus [4]; 107.9% in the assay listed under Rattus norvegicus [2]; 99.8% in the assay listed under Rattus norvegicus [5]; 105.8% in the assay filed under Rattus norvegicus [6].
